Measurements as given in patent publication US5276170A, “Azido-substituted aromatic amino acids” (The United States of America as represented by the …, priority 1992, dated 1994).
Like-named read-outs stand apart in the source and are kept apart here.

Experiments:
[1] = test system: mushroom tyrosinase (sigma); test: Mushroom tyrosinase oxidation (UV/visible spectra; dopaquinone production at 480 nm); assay type: biochemical
From the text: Thus, compound 1 is apparently able to bind strongly to mushroom tyrosinase.

PC12 cells [2] = test: Effect on PC12 cell growth ([3H]thymidine and [3H]leucine incorporation over 5 days); assay type: cell-based; conditions: presence and absence of NGF
Experimental: Cell growth was estimated both visually and by the incorporation of [^3 H]thymidine and [^3 H]leucine over a period of 5 days in the presence and absence of nerve growth factor, 50 nanogm/well (NGF-7S was obtained from Boehringer Mannheim Biochemicals, Indianapolis, Ind.; labeled amino acids and thymidine were obtained from New England Nuclear, Boston, Mass.). On day one, compound 1 was added in concentrations ranging from 0.005 to 1.5 mM. Less than 10% inhibition in isotope-incorporation was observed between control and cultures over the five day period.

PC12 cells [3] = test: Incorporation of tyrosine, leucine and thymidine into PC12 cells; assay type: cell-based; conditions: for inhibition at 1000 µM: Rattus norvegicus
Experimental: The incorporation (2 μCi/well) of [^14 CU]tyrosine, [^3 H]thymidine were measured in the presence and absence of 2-azidotyrosine (1.0 mM) over a period of 72 hours. PC12 cells were grown as monolayers in 150 cm^2 tissue culture flasks at 37° C. in 6% CO2 in Dulbecco's modified Eagle's medium supplemented with 7% fetal bovine serum, 7% horse serum, and 100 μg streptomycin and 100 units of penicillin per ml. The cells were split after 3 days and aliquots (2 ml) transferred to 6 well culture plates. 2-Azidotyrosine (final concentration, 1 mM), [^14 CU] tyrosine (2 μCi/well), [^3 H]leucine (2 μCi/well), and [^3 H]thymidine (2 μCi/well) were added in 0.5 ml solutions in cell media. The final volume of each well was adjusted to 3.0 ml. The cultures were incubated in the dark at 37° C. in 6% CO2 for 12, 24, 48 and 72 hrs. Cells were removed and transferred to conical tubes (10 ml), sedimented by centrifugation, and washed 3X with phosphate buffered saline, pH 7.2. The cell sediment was dissolved in 0.5 ml of a solution of 0.5N NAOH containing 1% SDS over a period of 30 min., neutralized with 0.5 ml 0.5N HCl, and the isotope content measured by scintillation spectrometry. The results are expressed at the mean±SEM for 3 wells for each set of conditions.

tyrosine phenol-lyase = tyrosine phenol-lyase (Citrobacter freundii, UniProt P31013); test: Tyrosine phenol-lyase catalyzed hydrolytic cleavage to ammonium pyruvate and 3-azidophenol; assay type: biochemical; conditions: as substrate; % of Vmax of L-tyrosine
tyrosine phenol-lyase, sequence (P31013 whole entry, species assumed): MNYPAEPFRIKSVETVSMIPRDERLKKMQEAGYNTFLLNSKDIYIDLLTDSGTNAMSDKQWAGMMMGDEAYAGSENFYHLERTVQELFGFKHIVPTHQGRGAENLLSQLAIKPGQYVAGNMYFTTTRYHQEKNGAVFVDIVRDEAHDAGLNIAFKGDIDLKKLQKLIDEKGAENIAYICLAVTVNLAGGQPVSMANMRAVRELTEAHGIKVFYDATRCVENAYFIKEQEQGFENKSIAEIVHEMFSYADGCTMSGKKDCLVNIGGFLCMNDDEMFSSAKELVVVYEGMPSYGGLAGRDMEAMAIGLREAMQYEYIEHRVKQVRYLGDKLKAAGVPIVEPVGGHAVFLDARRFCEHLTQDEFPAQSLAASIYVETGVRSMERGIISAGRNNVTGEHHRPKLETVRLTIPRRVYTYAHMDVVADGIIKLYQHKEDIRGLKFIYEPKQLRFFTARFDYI

## [N-]=[N+]=Nc1cc(O)ccc1C[C@H](N)C(=O)O [compound 1, 2-azido-L-tyrosine]
[1]; 0.1 mM, equimolar L-tyrosine, dopaquinone at 480 nm
  lag period before oxidation of L-tyrosine: much longer lag periods
[1]; extensive incubation, UV and visible absorption spectra
  hydroxylation by mushroom tyrosinase: not hydroxylated
[1]; inferred from lag period
  binding to mushroom tyrosinase: bind strongly
PC12 cells [2]; 0.005 to 1.5 mM, [3H]thymidine and [3H]leucine, five day period
  inhibition in isotope-incorporation: Less than 10%
PC12 cells [2]; maximum concentration 1.5 mM, 5 days
  growth of PC12 cells: did not significantly inhibit
PC12 cells [3]; 1.0 mM, up to 72 hrs
  incorporation of [3H]leucine: not significantly different from control
PC12 cells [3]; PC-12, 1.0 mM, 24 hours, read-out: inhibition of [3H]thymidine incorporation
  inhibition at 1000 µM: 34%
PC12 cells [3]; PC-12, 1.0 mM, 72 hours, read-out: inhibition of [3H]thymidine incorporation
  inhibition at 1000 µM: 24%
PC12 cells [3]; PC-12, 24 h, 1.0 mM, 24 hrs, compared to untreated controls, read-out: inhibition of [14CU]tyrosine incorporation
  inhibition at 1000 µM: ~58%
PC12 cells [3]; PC-12, 72 h, 1.0 mM, 72 hrs, compared to untreated controls, read-out: inhibition of [14CU]tyrosine incorporation
  inhibition at 1000 µM: ~38%
Tyrosine phenol-lyase
  Vmax (relative to that of L-tyrosine): 18%
